Measured values reported in patent US20160304556A1, “[…] ACTIVE COMPOUNDS AND THEIR METHODS OF USE” (AGIOS PHARMACEUTICALS, INC, priority 2012, published 2016).
pIC50: −log10 of the molar value.

How the values were obtained:
IDH1 R132C = IDH1 R132C (Homo sapiens, UniProt O75874, R132C); assay: In vitro NADPH depletion assay for IDH1m R132C inhibitors; format: biochemical; settings: enzyme, diaphorase/resazurin readout, read-out: IDH R132C IC50
Protocol: (§1) A test compound is prepared as 10 mM stock in DMSO and diluted to 50× final concentration in DMSO, for a 50 μl reaction mixture. IDH enzyme activity converting alpha-ketoglutarate to 2-hydroxyglutaric acid is measured using a NADPH depletion assay. In the assay the remaining cofactor is measured at the end of the reaction with the addition of a catalytic excess of diaphorase and resazurin, to generate a fluorescent signal in proportion to the amount of NADPH remaining. IDH1-R132 homodimer enzyme is diluted to […] in 40 μl of Assay Buffer(150 mM NaCl, 20 mM Tris-Cl pH 7.5, 10 mM MgCl2, 0.05% BSA, 2 mM b-mercaptoethanol); 1 μl of test compound dilution in DMSO is added and the mixture is incubated for 60 minutes at room temperature. The reaction is started with the addition of 10 μl of Substrate Mix ([…], 5 mM alpha-ketoglutarate, in Assay Buffer) and the mixture is incubated for 90 minutes at room temperature. The reaction is terminated with the addition of 25 μl of Detection Buffer (36 μg/ml diaphorase, […], in 1× Assay Buffer), and is incubated for 1 minute before reading on a SpectraMax platereader at Ex544/Em590.
Compounds are assayed for their activity against IDH1 R132C following the same assay as above with the following modifications: Assay Buffer is (50 mM potassium phosphate, pH 6.5; 40 mM sodium carbonate, 5 mM MgCl2, 10% glycerol, 2 mM b-mercaptoethanol, and 0.03% BSA). The concentration of NADPH and alpha-ketoglutarate in the Substrate Buffer is 20 μM and 1 mM, respectively.
(§2) Representative compounds of formula I set forth in Table 1 were tested in this assay and the results are set forth below in Table 3.

IDH1 R132H = IDH1 R132H (Homo sapiens, UniProt O75874, R132H); assay: In vitro NADPH depletion assay for IDH1m R132H inhibitors; format: biochemical; settings: enzyme, diaphorase/resazurin readout, read-out: IDH R132H IC50
Protocol: as §1, §2

HT1080 cells = assay: Cellular assay, inhibition of 2-HG production (LC-MS) in HT1080 cells; format: cell-based; settings: Homo sapiens, HT-1080, 48 hours, LC-MS of media
Protocol: Cells (HT1080 or U87MG) are grown in T125 flasks in DMEM containing 10% FBS, 1× penicillin/streptomycin and 500 ug/mL G418 (present in U87MG cells only). They are harvested by trypsin and seeded into 96 well white bottom plates at a density of 5000 cell/well in 100 μl/well in DMEM with 10% FBS. No cells are placed in columns 1 and 12. Cells are incubated overnight at 37° C. in 5% CO2. The next day test compounds are made up at 2× the final concentration and 100 μl are added to each cell well. The final concentration of DMSO is 0.2% and the DMSO control wells are plated in row G. The plates are then placed in the incubator for 48 hours. At 48 hours, 100 μl of media is removed from each well and analyzed by LC-MS for 2-HG concentrations. The cell plate is placed back in the incubator for another 24 hours. At 72 hours post compound addition, 10 mL/plate of Promega Cell Titer Glo reagent is thawed and mixed. The cell plate is removed from the incubator and allowed to equilibrate to room temperature. Then 100 μl of Promega Cell Titer Glo reagent is added to each well of media. The cell plate is then placed on an orbital shaker for 10 minutes and then allowed to sit at room temperature for 20 minutes. The plate is then read for luminescence with an integration time of 500 ms.
The IC50 for inhibition of 2-HG production (concentration of test compound to reduce 2HG production by 50% compared to control) in these two cell lines for various compounds of formula I is set forth in Table 2 above.

IDH1 R132H, sequence (O75874 whole entry R132H): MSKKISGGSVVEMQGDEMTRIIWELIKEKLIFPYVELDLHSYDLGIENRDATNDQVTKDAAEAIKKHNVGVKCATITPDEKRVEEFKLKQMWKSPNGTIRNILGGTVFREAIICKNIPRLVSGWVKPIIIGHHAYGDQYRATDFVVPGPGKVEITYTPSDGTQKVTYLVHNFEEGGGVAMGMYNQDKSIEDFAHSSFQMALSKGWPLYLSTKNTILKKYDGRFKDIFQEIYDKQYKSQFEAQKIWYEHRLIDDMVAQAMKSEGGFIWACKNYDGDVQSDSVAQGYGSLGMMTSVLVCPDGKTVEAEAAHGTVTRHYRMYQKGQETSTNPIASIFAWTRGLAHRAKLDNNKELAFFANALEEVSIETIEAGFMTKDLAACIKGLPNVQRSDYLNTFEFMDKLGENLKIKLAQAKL
IDH1 R132C, sequence (O75874 whole entry R132C): as the sequence (O75874 whole entry R132H) above, with H132C counted along it

| SMILES | pIC50 (IDH1 R132C) | pIC50 (IDH1 R132H) | pIC50 (HT1080 cells) |
| --- | --- | --- | --- |
| COC(=O)N1CCOC[C@H]1C(=O)N(c1cccc(F)c1)[C@H](C(=O)NC1CCCCC1)c1ccccc1C [Compound 23] | ≥ 7.00 | – | ≥ 7.00 |
| O=C(NC1CCC(F)(F)CC1)C(c1ccccc1Cl)N(C(=O)Cn1ccnn1)c1cccc(F)c1 (stereo not drawn) [Compound 46] | – | 6.30 to 7.00 | 5.70 to 6.00 |
| O=C(NC1CCC(F)(F)CC1)C(c1ccccc1Cl)N(C(=O)Cn1cnnn1)c1cccc(F)c1 (stereo not drawn) [Compound 49] | 6.30 to 7.00 | 6.30 to 7.00 | – |
| COC(=O)N[C@@H](CO)C(=O)N(c1cccc(F)c1)C(C(=O)NC1CC(F)(F)C1)c1ccccc1Cl (stereo partly drawn) [Compound 56] | 6.00 to 6.30 | 6.30 to 7.00 | – |
| COC(=O)N1CCC[C@H]1C(=O)N(c1cccc(S(N)(=O)=O)c1)[C@H](C(=O)NC1CCC(F)(F)CC1)c1ccccc1Cl [Compound 57] | – | 6.30 to 7.00 | 6.00 to 6.30 |
| COC(=O)N1CCNC[C@H]1C(=O)N(c1cccc(F)c1)[C@H](C(=O)NC1CC(F)(F)C1)c1ccccc1Cl [Compound 62, (S)-Methyl 2-(((S)-1-(2-chlorophenyl)-2-(3,3-difluorocyclobutylamino)-2-oxoethyl) -(3-fluoro-phenyl)carbamoyl)piperazine-1-carboxylate] | – | 6.30 to 7.00 | 5.70 to 6.00 |
| COC(=O)N1C[C@H](N)C[C@H]1C(=O)N(c1cccc(F)c1)[C@H](C(=O)NC1CC(F)(F)C1)c1ccccc1Cl [Compound 65] | 6.00 to 6.30 | 6.30 to 7.00 | – |
| COC(=O)N1CCN(C(C)=O)C[C@H]1C(=O)N(c1cccc(F)c1)[C@@H](C(=O)NC1CC(F)(F)C1)c1ccccc1Cl [Compound 67, (S)-Methyl 4-acetyl-2-(((R)-1-(2-chlorophenyl)-2-(3,3-difluorocyclobutylamino)-2-oxoethyl)(3-fluorophenyl)carbamoyl)piperazine-1-carboxylate] | 6.30 to 7.00 | 6.30 to 7.00 | – |
| O=C(NC1CC(F)(F)C1)C(c1ccccc1Cl)N(C(=O)Cn1ccnc1CO)c1cccc(F)c1 (stereo not drawn) [Compound 72] | 6.00 to 6.30 | 6.30 to 7.00 | – |
| COC(=O)NCC(=O)N(c1cccc(F)c1)C(C(=O)NC1CC(F)(F)C1)c1c(Cl)cccc1Cl (stereo not drawn) [Compound 76] | 6.30 to 7.00 | 6.30 to 7.00 | – |
| COC(=O)NCC(=O)N(c1cccc(F)c1)C(C(=O)NC1CC(F)(F)C1)c1c(F)cccc1Cl (stereo not drawn) [Compound 77] | 6.00 to 6.30 | 6.30 to 7.00 | – |
| COC(=O)NCC(=O)N(c1cccc(F)c1)C(C(=O)NC1CC(F)(F)C1)c1c(F)cccc1F (stereo not drawn) [Compound 78] | 5.70 to 6.00 | 6.00 to 6.30 | – |
| COC(=O)N1CCN(C)C[C@H]1C(=O)N(c1cccc(F)c1)[C@H](C(=O)NC1CC(F)(F)C1)c1ccccc1Cl [Compound 80, (S)-Methyl 2-(((S)-1-(2-chlorophenyl)-2-(3,3-difluorocyclobutylamino)-2-oxoethyl)-(3-fluorophenyl)carbamoyl)-4-methylpiperazine-1-carboxylate] | 6.30 to 7.00 | 6.30 to 7.00 | – |
| COC(=O)N1C[C@@H](N)C[C@H]1C(=O)N(c1cccc(F)c1)[C@H](C(=O)NC1CC(F)(F)C1)c1ccccc1Cl [Compound 89] | 6.00 to 6.30 | 6.30 to 7.00 | – |
| COC(=O)N[C@H](C(=O)N(c1cccc(F)c1)C(C(=O)NC1CC(F)(F)C1)c1ccccc1Cl)[C@@H](C)O (stereo partly drawn) [Compound 99] | 6.00 to 6.30 | 6.00 to 6.30 | – |
| O=C(NC1CC(F)(F)C1)[C@H](c1ccccc1Cl)N(C(=O)[C@@H]1CCN1c1ncccn1)c1cccc(F)c1 [Compound 103] | 6.00 to 6.30 | 5.70 to 6.00 | – |
| COC(=O)N1C[C@H](OCCN(C)C)C[C@H]1C(=O)N(c1cccc(F)c1)[C@H](C(=O)NC1CC(F)(F)C1)c1ccccc1Cl [Compound 104] | 5.70 to 6.00 | 6.00 to 6.30 | – |
| O=C(NC1CC(F)(F)C1)C(c1ccccc1Cl)N(C(=O)c1ccnn1-c1ncccn1)c1cccc(F)c1 (stereo not drawn) [Compound 116, N-(1-(2-chlorophenyl)-2-((3,3-difluorocyclobutyl)amino)-2-oxoethyl)-N-(3-fluorophenyl)-1-(pyrimidin-2-yl)-1H-pyrazole-5-carboxamide] | 6.30 to 7.00 | 6.00 to 6.30 | – |
| N#Cc1ccnc(N2c3ccccc3C[C@H]2C(=O)N(c2cc(F)cc(F)c2)C(C(=O)NC2CC(F)(F)C2)c2ccccc2Cl)c1 (stereo partly drawn) [Compound 119, (2S)—N-(1-(2-chlorophenyl)-2-((3,3-difluorocyclobutyl)amino)-2-oxoethyl)-1-(4-cyanopyridin-2-yl)-N-(3,5-difluorophenyl)indoline-2-carboxamide] | – | 6.30 to 7.00 | 6.30 to 7.00 |

More lines, now with the values ahead:

| pIC50 (IDH1 R132C) | pIC50 (IDH1 R132H) | pIC50 (HT1080 cells) | SMILES |
| --- | --- | --- | --- |
| 6.30 to 7.00 | 6.30 to 7.00 | – | COC(=O)NCC(=O)N(c1cccc(F)c1)[C@H](C(=O)N[C@H]1CCCC(F)(F)C1)c1ccccc1Cl (single isomer, unassigned) [Compound 94, methyl 2-((1-(2-chlorophenyl)-2-(3,3-difluorocyclohexylamino)-2-oxoethyl) (3-fluoro-phenyl)amino)-2-oxoethylcarbamate] |
| 6.30 to 7.00 | 6.30 to 7.00 | – | COC(=O)NCC(=O)N(c1cccc(F)c1)[C@H](C(=O)N[C@@H]1CCCC(F)(F)C1)c1ccccc1Cl (single isomer, unassigned) [Compound 95, methyl 2-((1-(2-chlorophenyl)-2-(3,3-difluorocyclohexylamino)-2-oxoethyl) (3-fluoro-phenyl)amino)-2-oxoethylcarbamate] |
| ≥ 7.00 | 6.30 to 7.00 | 6.30 to 7.00 | COC(=O)N1[C@@H](C(=O)N(c2cccc(F)c2)[C@H](C(=O)NC2CC(F)(F)C2)c2ccccc2Cl)CCC1(C)C (single isomer, unassigned) [Compound 114] |
| 6.30 to 7.00 | 6.30 to 7.00 | 6.00 to 6.30 | COC(=O)N1[C@H](C(=O)N(c2cccc(F)c2)[C@H](C(=O)NC2CC(F)(F)C2)c2ccccc2Cl)CCC1(C)C (single isomer, unassigned) [Compound 115] |
| 5.70 to 6.00 | 6.30 to 7.00 | – | O=C(NC1CC(F)(F)C1)C(c1ccccc1Cl)N(C(=O)Cn1cncn1)c1cccc(F)c1 (stereo not drawn) [Compound 36] |
| – | ≥ 7.00 | 6.30 to 7.00 | O=C(NC1CC(F)(F)C1)C(c1ccccc1Cl)N(C(=O)CNc1cccnc1F)c1cccc(F)c1 (stereo not drawn) [Compound 47] |
| – | ≥ 7.00 | 6.00 to 6.30 | COC(=O)N1C[C@H](O)C[C@H]1C(=O)N(c1cccc(F)c1)[C@H](C(=O)NC1CC(F)(F)C1)c1ccccc1Cl [Compound 51] |
| – | ≥ 7.00 | 6.00 to 6.30 | COC(=O)N1C[C@@H](O)C[C@H]1C(=O)N(c1cccc(F)c1)[C@H](C(=O)NC1CC(F)(F)C1)c1ccccc1Cl [Compound 52] |
| – | ≥ 7.00 | 6.30 to 7.00 | COC(=O)N1CCOC[C@H]1C(=O)N(c1cccc(F)c1)[C@H](C(=O)NC1CC(F)(F)C1)c1ccccc1Cl [Compound 53] |
| – | ≥ 7.00 | 6.00 to 6.30 | COC(=O)N1COC[C@H]1C(=O)N(c1cccc(F)c1)[C@H](C(=O)NC1CC(F)(F)C1)c1ccccc1Cl [Compound 54] |
| – | ≥ 7.00 | 6.00 to 6.30 | COC(=O)N1C[C@H](F)C[C@H]1C(=O)N(c1cccc(F)c1)[C@H](C(=O)NC1CC(F)(F)C1)c1ccccc1Cl [Compound 55, (2S,4R)-methyl 2-(((S)-1-(2-chlorophenyl)-2-((3,3-difluorocyclo-butyl)amino)-2-oxoethyl)(3-fluorophenyl)carbamoyl)-4-fluoropyrrolidine-1-carboxylate] |
| – | ≥ 7.00 | 5.70 to 6.00 | COC(=O)N1C[C@@H](OC)C[C@H]1C(=O)N(c1cccc(F)c1)[C@H](C(=O)NC1CC(F)(F)C1)c1ccccc1Cl [Compound 63] |
| – | ≥ 7.00 | 6.30 to 7.00 | O=C(NC1CC(F)(F)C1)C(c1ccccc1Cl)N(C(=O)Cc1ccncc1)c1cccc(F)c1 (stereo not drawn) [Compound 64] |
